This is an account of results in patent US11147784B2, “Dietary supplements and composition for treating cancer” (The Trustees of Princeton University, priority 2013, dated 2021).

Read-outs that look alike come from different tables or passages of the source.

The subject of one assay is ΔMTHFD2 cells. The following applies: addition of formate to ΔMTHFD2 cells (from HEK293T). As to the method: AICAR in wild type HEK293T cells and cells lacking a key enzyme producing formyl-THF, MTHFD2, was measured by LC-MS. See e.g., Fan et al., Nature 510: 298-302, 2014. […] The ΔMTHFD2 cells lacking MTHFD2 were produced from HEK293T cells by CRISPR (clustered regularly interspaced short palindromic repeat)-mediated knockout.

Assay [1] deals with HEK293T cells. The following applies: 24 h, addition of glycine (5 mM).
Experimental: (§2) Metabolites were then harvested by quickly aspirating media, washing with PBS buffer, and immediately adding −80° C. 80:20 methanol: water extraction solution at −80° C. Following quenching, the tissue culture dish was incubated at −80° C. for 15 min, and then the cells were scraped from the plate. After centrifuging the cell suspension at 5300×g for 10 min, the supernatant was kept and the debris was re-extracted with −80° C. 80:20 methanol:water. The resulting suspension was centrifuged again and the supernatant was combined with first supernatant. […] LC separation was by reversed-phase ion-pairing chromatography with tributylamine as the ion-pairing agent. MS analysis was on a stand-alone orbitrap mass analyzer (Thermo Scientific) operated in negative ion mode and scanning from m/z 85-1000 at 1 Hz at 100,000 resolution. Data were analyzed using the MAVEN software suite. All observed LC-MS peaks were in analyzed, including those of roughly 100 known water-soluble metabolites.
HEK293T cells were cultured in the conditions described in Example 2. In addition to measuring metabolite concentrations, important metabolite ratios, e.g., NADH/NAD+, NADPH/NADP+, ATP/ADP, were calculated.
The test system of assay [2] is HEK293T cells. Put plainly: U13C tracer labeling of the one-carbon unit pool. The format is cell-based. As to conditions: 48 h, ADP purine ring and dTTP methyl labeling. As to the method: In order to determine contribution of the single carbon, cells were cultured with media containing [U ^13C] serine for 48 h, washed three times with cold PBS to remove extracellular serine, extracted, and the intracellular labeling pattern analyzed by LC-MS for ATP (representing purines; there is no labeling of ribose-phosphate based on LC-MS measurements), glycine and serine. See e.g., Fan et al., Nature 510: 298-302, 2014.
Purine ring labeling is indicative of formyl-THF labeling.

The next assay relates to HCT116 cells. As to conditions: HCT116 xenograft in CD-1-Foxn1nu female mice; high (2×-5× normal) glycine diets.
The next assay concerns tumor growth. As to conditions: patients; current best therapy plus glycine supplementation therapy.
The test system of another assay is HEK293 cell. As to conditions: 3 days. An excerpt: (§1) It is hypothesized that high glycine is driving the backwards SHMT reaction while also impairing the forward reaction by product inhibition.
In the next assay the test system is HEK293 cells. As to conditions: DMEM lacking serine, 3 days.
From the text: as §1

The test system of assay [3] is HEK293T cells.
Experimental: To measure cellular folates, media was removed from HEK293T cells, and replaced with 50:50 methanol:water with 25 mM ammonium acetate and 1% sodium ascorbate, at −20° C. […] After 15 min on ice, the cells were scraped from the dish to further enhance extraction, and the cell-liquid mixture was centrifuged to remove particulate matter. The particulate matter was re-extracted with the same solvent for 15 minutes, and the 2 extracts were combined. The resulting combined extract was treated with rat serum to hydrolyze the polyglutamate chains of folate polyglutamates. […] The resulting mixture was passed through a phenyl solid phase extraction column which removes proteins, highly soluble metabolites, salts and further concentrates the folate species, which were then analyzed by in high resolution LC-MS.
The test system of assay [4] is HEK293T cells. As to conditions: 24 h, +5 mM glycine, DMEM with or without serine.
Experimental: as §2
Assay [5] relates to HEK293T cells. As to conditions: absence of exogenous serine, 0.4 mM glycine, or addition of 2 mM or 5 mM glycine.
Experimental: Cell growth was measured in an incubator containing 5% CO2 at 37° C.
The subject of the next assay is NADPH/NADP+ ratio. Put plainly: Cellular effect of anti-folate therapy on the NADPH/NADP+ ratio. It is filed as cell-based. As to conditions: methotrexate 500 nM.

Experimental for HCT116 cells: Approximately 3×10^6 HCT116 cells (or other tumor-forming transformed cells) are injected on the flank of approximately 8 week CD-1-Foxn1nu female mice (Charles River) or similar rodents. To compare cell lines or gather data more rapidly, different cell lines can be ejected on the 2 flanks (right and left) of each mouse. […] Numbers of mice are selected in order to obtain appropriate statistical power, with 6-20 mice per group typical.
From the text for tumor growth: Individuals providing informed consent to enter the trial are randomized to the current best therapy or current best therapy plus glycine supplementation therapy arms.
The glycine supplementation therapy arm involves providing increased total intake of glycine and/or decreased total intake of serine so as to achieve an increased ratio of glycine to serine intake. The clinical course of patients enrolled in the trial is monitored with respect to endpoints selected based on the disease state, e.g., for stage IV lung cancer, changes in tumor volume, progression-free survival, and overall survival, as well as side effects of the treatment regimen.

With `O=CO` [formate], the AICAR accumulation entry with ΔMTHFD2 cells is reported as “eliminates the AICAR accumulation”.

With `NCC(=O)O` [glycine], in the assay on HEK293T cells [1], the ATP/ADP ratio result was “significantly decreased”. In the assay on HEK293T cells [1], the “decrease in the NADPH/NADP+ ratio” value is reported as “approximately 2 fold”. Further, the “contribution to the cellular one-carbon unit pool” value with HEK293T cells [2] was “does not contribute one carbon units”. The “tumor growth and tumor progression” value is “will reduce tumor growth and slow tumor progression” with HCT116 cells; “will reduce tumor growth and slow tumor progression” in the assay with tumor growth. The “decrease in final cell number relative to growth in complete DMEM” value in the assay on HEK293 cell (DMEM lacking serine, 1× glycine) is listed as “approximately 30%”; in the assay on HEK293 cell (serine removal and addition of 12× glycine), “approximately 70%”. The “Relative NADPH/NADP+” value in the assay on HEK293 cells (1× glycine, complete DMEM approximately 1) is “approximately 0.7”; with HEK293 cells (addition of 12× glycine), “approximately 0.45”. For the same molecule, in the assay on HEK293T cells [3] (glycine addition), the AICAR entry is “rise”. Also, in the assay on HEK293T cells [3] (presence of glycine when serine is absent, 1× and 10× relative to standard DMEM), the “Formyl-THF and methyl-THF levels” value was “decrease”. Also, the intracellular serine levels entry in the assay with HEK293T cells [4] is recorded as “enhanced”. Besides, in the assay with HEK293T cells [5], the transformed cell growth result was “inhibits transformed cell growth”.

For the molecule `CN(Cc1cnc2nc(N)nc(N)c2n1)c1ccc(C(=O)N[C@@H](CCC(=O)O)C(=O)O)cc1` [methotrexate], the “NADPH/NADP+ ratio” value in the assay on NADPH/NADP+ ratio is “decrease”.

With `N[C@@H](CO)C(=O)O` [serine, reference compound], in the assay on HEK293T cells [2], the “contribution to the cellular one-carbon unit pool” value is given as “contributes to the cellular one-carbon unit pool”.
